According to publication PMC6440584 (Eurosurveillance, 2019):

Key:
[1] = tested on: influenza A(H3N2) virus A/YOKOHAMA/87/2019 (PA I38T); format: cell-based
[2] = tested on: influenza A(H3N2) virus A/YOKOHAMA/88/2019 (PA I38T); format: cell-based
[3] = molecular target: neuraminidase (NA) of influenza A(H3N2) virus A/YOKOHAMA/88/2019 (Influenza A virus, UniProt A0A193ACB1); format: biochemical
[4] = molecular target: neuraminidase (NA) of influenza A(H3N2) virus A/YOKOHAMA/87/2019 (Influenza A virus, UniProt A0A193ACB1); format: biochemical

| Structure (SMILES) | IC50 [1] [nM] | fold higher IC50 compared with the median IC50 of A(H3N2) viruses of the 2018/19 season [1] [fold] | IC50 [2] [nM] | fold higher IC50 compared with the median IC50 of A(H3N2) viruses of the 2018/19 season [2] [fold] | IC50 [3] [nM] | IC50 [4] [nM] |
| --- | --- | --- | --- | --- | --- | --- |
| CCC(CC)[C@H](NC(C)=O)[C@@H]1[C@H](O)[C@@H](C(=O)O)C[C@H]1N=C(N)N [Peramivir, peramivir] |  |  |  |  | 0.13 | 0.16 |
